Values after ≈ are worked out from the molar mass of the structure shown.
Test system: Acinetobacter baumannii
Assay: Antibacterial activity against Acinetobacter baumannii GIL1 isolate harboring intrinsic blaOXA-51/69-like gene by Etest method
Format: functional

Compound	MIC [µg/mL]
NCC[C@H](O)C(=O)N[C@@H]1C[C@H](N)[C@@H](O[C@H]2O[C@H](CN)[C@@H](O)[C@H](O)[C@H]2O)[C@H](O)[C@H]1O[C@H]1O[C@H](CO)[C@@H](O)[C@H](N)[C@H]1O [AMIKACIN]	> 256
O=C(O)c1cn(C2CC2)c2cc(N3CCNCC3)c(F)cc2c1=O [CIPROFLOXACIN]	> 32
C[C@@H](O)[C@H]1C(=O)N2C(C(=O)O)=C(SCCNC=N)C[C@H]12 [IMIPENEM ANHYDROUS]	> 32
C[C@@H](O)[C@H]1C(=O)N2C(C(=O)O)=C(S[C@@H]3CN[C@H](C(=O)N(C)C)C3)[C@H](C)[C@H]12 [MEROPENEM]	> 32
CO[C@H]1/C=C/O[C@@]2(C)Oc3c(C)c(O)c4c(O)c(c(/C=N/N5CCN(C)CC5)c(O)c4c3C2=O)NC(=O)/C(C)=C\C=C\[C@H](C)[C@H](O)[C@@H](C)[C@@H](O)[C@@H](C)[C@H](OC(C)=O)[C@@H]1C [RIFAMPIN]	3 (≈ 3.65 µM)
CC1(C)[C@H](C(=O)O)N2C(=O)C[C@H]2S1(=O)=O [SULBACTAM]	48 (≈ 206 µM)
CN(C)c1cc(NC(=O)CNC(C)(C)C)c(O)c2c1C[C@H]1C[C@H]3[C@H](N(C)C)C(O)=C(C(N)=O)C(=O)[C@@]3(O)C(O)=C1C2=O [TIGECYCLINE]	6 (≈ 10.2 µM)
COLISTIN	0.5

Source: ChEMBL document CHEMBL1275545, “Carbapenem-resistant Acinetobacter baumannii isolates expressing the blaOXA-23 gene associated with ISAba4 in Belgium” (2008)
